What was measured:
HLA-E = assay: LMP-1 dependent HLA-E up-regulation assay in GlialCAM370-389-specific B-cells; type: cell-based, human; conditions: B-cells from 24 healthy blood donors transfected with LMP-1 peptide, 16 h
Method: (§1) For the HLA-E stabilization experiments, 5×10^6 viable CFSE stained PBMCs were cultured in RPMI-1640+10% FCS in the presence of 10 μg GlialCAM370-389 ([…]), 10 μg of random 20 amino acid peptides (negative control, GenScript) or without peptides (non-peptide control) and 10 ng/mL IL-2 (Peprotech) at 37° C. Every three days, fresh 10 μg GlialCAM370-389 and 10 ng/mL IL-2 were added. After 7 days of co-culture, GlialCAM370-389-specific B-cells were sorted. 1×10^5 GlialCAM370-389-specific B-cells were then individually transfected with the indicated concentrations of the LMP-1 peptides (Peptides&Elephants) using the Pierce Protein Transfection Reagent according to the manufacturer's instructions (Thermo Fisher). After 16 h, the cells were either fixed and analyzed for HLA-E expression by flow cytometry, as described below, or washed once with Opti-MEM I Reduced Serum Medium (Gibco) and subsequently used in NKG2A^+ NK cell inhibition experiments. For the NKG2A^+ NK cell inhibition experiments, sorted NKG2A^+NKG2C^−NKG2D^− NK cells from 24 healthy blood donors were cultured together with peptide-pulsed GlialCAM370-389 B-cells (E:T, 1:1) for 6 h at 37° C. After co-cultivation, the supernatant was removed, cleared by centrifugation (1000×g, 5 min), and analyzed using IFNγ ELISA according to the manufacturer's recommendations (Thermo Fisher).

[1] = tested on: NKG2A+ NKG2C−NKG2D− NK cells; assay: NKG2A+ NK cell inhibition by LMP-1 peptide-transfected GlialCAM370-389-specific B-cells (IFNγ ELISA); type: cell-based, human; conditions: LMP-1 peptide-pulsed GlialCAM370-389-specific B-cells, E:T 1:1, 6 h
Method: as §1

NKG2A+ NK cells = assay: NKG2A+ NK cell inhibition assay; type: cell-based, human; conditions: K562-HLA-E*0101/0101 or K562-HLA-E*0103/0103 target cells pulsed with 300 μM LMP-1 peptide
Method: For the NKG2A^+ NK cell inhibition experiments, MACS-enriched CD56^+ cells were quickly thawed at 37° C., washed, and pre-activated overnight in RPMI, 10% FCS, 1% L-glutamine (all: Thermo Fisher Scientific), 10 ng/ml IL-12 (PeproTec) and 100 ng/ml IL-18 (Biozym Scientific) at 37° C. CD56^+ NK cells were then harvested by centrifugation at 400×g for 5 minutes and washed once with Opti-MVEM I Reduced Serum Medium (Gibco). The NK cells were then cultured together with peptide pulsed K562-HLA-E*0101/0101 or K562-HLA-E*0103/0103 cells (E:T, 1:2) and 5 μL mouse anti-human CD107-APC-H7 (BD) for 6 h. NK cells were then harvested, fixed with the FIX & PERM Cell Fixation & Cell Permeabilization Kit (Thermo-Scientific) and analysed by flow-cytometry, as described below.

NKG2A+ CD8+ T cells = assay: NKG2A+ CD8+ T cell inhibition assay; type: cell-based, human; conditions: K562-HLA-E*0101/0101 or K562-HLA-E*0103/0103 target cells pulsed with 300 μM peptide
Method: For the CD8^+ T cells experiments, CD8^+ MACS-enriched cells were quickly thawed at 37° C., washed once, and pre-activated overnight in RPMI, 10% FCS, 1% L-glutamine and 20 ng/ml IL-2 (PeproTec) at 37° C. CD8^+ T cells were then harvested by centrifugation (400×g, 5 min) and then washed once with Opti-MEM I Reduced Serum Medium. CD8^+ T cells were then cultured together with peptide pulsed K562-HLA-E*0101/0101 or K562-HLA-E*0103/0103 cells (E:T, 1:2), 1× monensin and 1× brefeldin A for 6 h. […] were harvested, fixed with the FIX & PERM Cell Fixation & Cell Permeabilization Kit and analysed by flow-cytometry, as described below.

EBV B95-8 isolate = assay: Virus (EBV) dissemination assay in K562-CR2-HLA-E cells; type: cell-based, Epstein-Barr virus; conditions: for viral spread (BZLF1+ K562-CR2-HLA-E cells); effect of peptide on NKG2A+ NK or NKG2A+ CD8+ T cell mediated prevention of the viral spread: 300 μM LMP-1 peptide, 2-14 days of co-culture; for inhibition of NKG2A+ CD8+ T cells in EBV-dissemination assay (granzyme B-expressing cells) / inhibition of NKG2A+ NK cells in EBV-dissemination assay (granzyme B-expressing cells): peptide-pulsed K562-CR2-HLA-E*0103/0103 and K562-CR2-HLA-E*0101/0101 cells; for inhibition of NKG2A+ CD8+ T cells in EBV-dissemination assay (granzyme B-expressing cells): sorted NKG2A+ CD8+ T cells; for inhibition of NKG2A+ NK cells in EBV-dissemination assay (granzyme B-expressing cells): sorted NKG2A+ NK cells
Method: For the virus dissemination assays, the marmoset B-lymphoblastoid cell line B95-8 was cultured in RPM1 1640 medium supplemented with 20 mM glutamine, 50 µg/ml gentamicin, 0.2 µg/ml amphotericin B and 10% FCS (Thermo-Scientific). Cells were then cultured in the presence of […] (Biomol) for two weeks. EBV was harvested from the supernatant and enriched by ultracentrifugation (30000 U/min, 90 min, 10° C.). The virus stocks were stored at −80° C. in RPMI 1640 medium+10% FCS+10% DMSO (all: Thermo-Scientific). The multiplicity of infection (MOI) of the viral stocks was determined on K562-CR2-HLA-E*0101/0101 and K562-CR2-HLA-E*0103/0103 cells by flow-cytometry.
RMA-S/HLA-E/LFA-3 cells (kindly provided by Chiara Romagnani, DRFZ, Berlin) were maintained in RPMI-1640+20 mM glutamine+10% FCS+20 μM β-mercaptoethanol+100 U/ml penicillin-streptomycin (all Thermo Fisher)+400 μg/ml hygromycin B+1 mg/ml G418 (both InvivoGen). 2×10^6 RMA-S/LFA3/HLA-E cells were incubated for 16 h at 37° C., 5% CO2, with 300 μM of respective peptides (Peptides&Elephants) in 1 ml serum-free OptiMEM (Thermo-Fisher). Cells were afterwards inactivated using 20 μg/mL Mitomycin C (Sigma Aldrich) at 37° C. for 30 minutes. Peptide pulsed RMA-S/LFA3/HLA-E cells were co-cultured with […] CFSE (Thermo-Fisher) stained CD56^+ or CD8^+ MACS-enriched cells for 7 days in RPMI+10% FCS. Proliferating (CFSE^low) NKG2A^+CD56^+ NK cells, NKG2A^+ CD8^+ T cells or […]-specific, HLA-E-restricted NKG2A^+ or NKG2A^− T cells were then sorted by FACS as described below.
Fresh K562-CR2-HLA-E*0101/0101 and K562-CR2-HLA-E*0103/0103 cells were then inactivated using 20 μg/mL Mitomycin C at 37° C. for 30 minutes and then infected with the EBV B95-8 isolate (MOI=1) for 24 h. The infected cells were then co-cultured together with the sorted NKG2A^+ CD56^+ NK cells, NKG2A^+ CD8^+ T cells or […]-specific, HLA-E-restricted NKG2A^+ or NKG2A^− T cells (E:T, 1:2). In some experiments, 300 μM of respective peptides was also added. At indicated time points, the cells were harvested and analyzed by flow-cytometry, as described below.

[2] = tested on: NKG2A+ NKG2D−NKG2C− NK cells; assay: NK cell inhibition assay with GlialCAM370-389-specific cells, with or without NKG2A-blocking antibody (IFNγ ELISA); type: cell-based, human; conditions: 10 μg/mL antibody, 12 h co-culture
Method: For the NK cell inhibition assays, GlialCAM370-389-specific (CFSE^low) CD4^+ T-cells, CD8^+ T-cells, and CD138^+ plasma cells were sorted and co-cultured together in an E:T ratio of 1:1 with sorted CD56^+NKG2A^+ NKG2D^−NKG2C^− NK cells from 24 healthy blood donors in OptiMem (Thermo Fisher) for 12 h at 37° C. For some experiments α-NKG2A blocking monoclonal antibodies (Monalizumab, 10 μg/mL, Innate Pharma) was added to the co-culture. The supernatant was removed, cleared by centrifugation (1000×g, 5 min), and then used for IFNγ (both Thermo Fisher) according to the manufacturer's instructions.

Molecule	upregulation of HLA-E on the surface of GlialCAM370-389-specific B-cells (HLA-E)	inhibition of NKG2A+ cells (IFNγ concentration in the supernatant) [1]	inhibition of NKG2A+ NK cells (NKG2A+ NK cells)	inhibition of NKG2A+ CD8+ T cells (IFNγ-expressing NKG2A+ CD8+ T cells) (NKG2A+ CD8+ T cells)	viral spread (BZLF1+ K562-CR2-HLA-E cells); effect of peptide on NKG2A+ NK or NKG2A+ CD8+ T cell mediated prevention of the viral spread (EBV B95-8 isolate)	inhibition of NKG2A+ CD8+ T cells in EBV-dissemination assay (granzyme B-expressing cells) (EBV B95-8 isolate)	inhibition of NKG2A+ NK cells in EBV-dissemination assay (granzyme B-expressing cells) (EBV B95-8 isolate)	inhibition of NKG2A+ cells by GlialCAM370-389-specific cells from patients with MS when NKG2A-blocking antibody is added [2]
GGDPHLPTL [EBV LMP-1 peptide variant]	stable upregulation of HLA-E	potently inhibited	potent inhibition	potent inhibition	increased viral spread	caused the inhibition	caused the inhibition	–
GGDPPLPTL [EBV LMP-1 peptide variant]	stable upregulation of HLA-E	potently inhibited	potent inhibition	potent inhibition	increased viral spread	caused the inhibition	caused the inhibition	–
Monalizumab: α-NKG2A blocking monoclonal antibodies (Innate Pharma) (antibody, chains of the INN, looked up, V domains shown) VH: QVQLVQSGAEVKKPGASVKVSCKASGYTFTSYWMNWVRQAPGQGLEWMGRIDPYDSETHYAQKLQGRVTMTTDTSTSTAYMELRSLRSDDTAVYYCARGGYDFDVGTLYWFFDVWGQGTTVTVSS VL: DIQMTQSPSSLSASVGDRVTITCRASENIYSYLAWYQQKPGKAPKLLIYNAKTLAEGVPSRFSGSGSGTDFTLTISSLQPEDFATYYCQHHYGTPRTFGGGTKVEIK	–	–	–	–	–	–	–	reversible

From patent US20260144862A1, “MATERIALS AND METHODS TO TREAT EPSTEIN-BARR VIRUS (EBV) AND EBV-INDUCED DISEASES” (Medizinische Universität Wien, priority 2022, published 2026)
